From patent US9096615B2, “Bridged bicyclic amino thiazine dioxide compounds as inhibitors of beta-secretase and methods of use thereof” (AMGEN INC., priority 2013, dated 2015)
Like-named read-outs stand apart in the source and are kept apart here.

What was measured:
Abeta 40 = experiment: In vivo inhibition of beta-secretase: percent Abeta 40 reduction in CSF and brain; design: species or system rat; conditions: 10 mpk, after 4 hrs
Procedure, shortened: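 Test compound was given by oral gavage in 2% HPMC, 1% Tween80, pH 2.2 (e.g., 30 mg/kg to male Sprague Dawley rats), or IV in 5% EtOH/45% propylene glycol in 5% dextrose. Four hours later, Abeta40 in CSF and in brain homogenate (DEA or Triton extraction) was measured by ECL sandwich ELISA (4G8 capture, Fab40 detection). Reduction is expressed relative to vehicle-treated animals.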

[1] = system: Aβ40 in conditioned medium of cells stably expressing Amyloid Precursor Protein (APP); experiment: In vitro BACE cell-based assay (HEK cell assay, Aβ40 sandwich ELISA); conditions: Homo sapiens, HEK293; average IC50; read-out: BACE1 cell assay IC50
Procedure, shortened: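 IC50 was derived from percent-of-control Aβ40 against concentration, with Aβ40 quantified by time-resolved fluorescence ELISA (pAb40/6E10-biotin, 4 °C incubations). Supernatants were sampled after 24 h of compound exposure (10 points, starting 100 or 10 μM, 0.1% DMSO) of cells stably expressing APP.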

[2] = Abeta 40, rat CSF, read-out: % reduction of rat CSF levels at 10 pmk
[3] = Abeta 40, rat brain, read-out: % reduction of rat brain levels at 10 mpk

Compound | inhibition in vivo at 10 mg/kg (Abeta 40; [2]) | inhibition in vivo at 10 mg/kg (Abeta 40; [3]) | IC50 [1]
Cc1cc(OC(F)F)cnc1C(=O)Nc1ccc(F)c([C@@]2(C)N=C(N)[C@@]3(CF)CC[C@@H]2S3(=O)=O)c1 [Example 102, N-(3-((1S,2R,5R)-4-amino-5-(fluoromethyl)-2-methyl-8,8-dioxido-8-thia-3-azabicyclo[3.2.1]oct-3-en-2-yl)-4-fluorophenyl)-5-(difluoromethoxy)-3-methyl-2-pyridinecarboxamide] | 67% | 68% | 2 nM
C[C@]1(c2cc(Nc3nccc4nc(OCc5ncco5)cnc34)ccc2F)N=C(N)[C@@]2(CF)CC[C@@H]1S2(=O)=O [Example 104, N-(3-((1S,2R,5R)-4-amino-5-(fluoromethyl)-2-methyl-8,8-dioxido-8-thia-3-azabicyclo[3.2.1]oct-3-en-2-yl)-4-fluorophenyl)-2-(1,3-oxazol-2-ylmethoxy)pyrido[3,4-b]pyrazin-5-amine] | 74% | 71% | 0.9 nM
C[C@]1(c2cc(Nc3ncnc4cc(C(F)(F)F)cnc34)ccc2F)N=C(N)[C@@]2(C)CC[C@@H]1S2(=O)=O [Example 106, N-(3-((1S,2R,5R)-4-amino-2,5-dimethyl-8,8-dioxido-8-thia-3-azabicyclo[3.2.1]oct-3-en-2-yl)-4-fluorophenyl)-7-(trifluoromethyl)pyrido[3,2-d]pyrimidin-4-amine] | 59% | 29% | 6 nM
COc1cnc2c(Nc3ccc(F)c([C@@]4(C)N=C(N)[C@@]5(C)CC[C@@H]4S5(=O)=O)c3)ncnc2c1 [Example 132, N-(3-((1S,2R,5R)-4-amino-2,5-dimethyl-8,8-dioxido-8-thia-3-azabicyclo[3.2.1]oct-3-en-2-yl)-4-fluorophenyl)-7-methoxypyrido[3,2-d]pyrimidin-4-amine] | 70% | 50% | 3 nM
C[C@]1(c2cc(Nc3nccc4nc(OCc5ncco5)cnc34)ccc2F)N=C(N)[C@@]2(C)CC[C@@H]1S2(=O)=O [Example 140, N-(3-((1S,2R,5R)-4-amino-2,5-dimethyl-8,8-dioxido-8-thia-3-azabicyclo[3.2.1]oct-3-en-2-yl)-4-fluorophenyl)-2-(1,3-oxazol-2-ylmethoxy)pyrido[3,4-b]pyrazin-5-amine] | 41% | 39% | 0.4 nM
